Results as given in paper PMC9042801 (RSC Advances, 2021).

What was measured:
[1] = tested on: influenza virus A/Puerto Rico/8/34 (H1N1); conditions: for SI (CC50/IC50): influenza virus A/Puerto Rico/8/34 (H1N1), MDCK cells
in vitro = conditions: dog
[2] = tested on: bovine diarrhea virus (BDV) (strain VC-1); assay: Antiviral activity against BDV on CCV cells; assay type: cell-based
[3] = tested on: vaccine virus (VV, strain Copenhagen); assay: organism not typed; assay type: cell-based
[4] = tested on: herpes simplex virus type 1 (HSV-1, strain VR-3); assay: Antiviral activity against HSV-1 on Vero cells; assay type: cell-based; conditions: HSV-1, Vero cells, moi 0.01, 3 days
MDCK cell line = conditions: MTT, 72 h
[5] = CC50, MDCK cell line, MTT, 72 h

With CSc1ccc(-c2c(C(F)(F)F)n(C)n(-c3ccccc3)c2=O)cc1 [Compound 3g] the IC50 [1] was > 91 µM and the CC50 (in vitro; [5]) was 263 ± 19 µM.
For Cn1c(C(F)(F)F)c(I)c(=O)n1-c1ccccc1 [Compound 5a, 4-iodo-5-trifluoromethyl-antipyrine], the IC50 ([2]; 72 h) was 46.9 ± 2 µM, the “SIVDC (selectivity index)” value ([2]; BDV, CCV cells) was 6.4 and the “activity against bovine diarrhea virus (strain VC-1), in words” value ([2]; CCV cells) was “weak activity”. For the same molecule, the CC50 (in vitro; [5]) was > 815 µM, the “SIBOB (selectivity index)” value ([3]; VV, Vero cells) was 2.9 and the “activity against the vaccine virus (strain Copenhagen), in words” value ([3]; Vero cells) was “weak activity”. For the same molecule, the IC50 ([3]; Vero, 72 h) was 103 ± 10 µM and the IC50 [4] was “Inactive”.
In the case of Cn1c(C(F)(F)C(F)(F)F)c(I)c(=O)n1-c1ccccc1 [Compound 5b], the CC50 (in vitro; [5]) is reported as 378 ± 26 µM.
In the case of Cn1c(C(F)(F)F)c(C#Cc2ccccc2)c(=O)n1-c1ccccc1 [Compound 6a, 1-methyl-2-phenyl-4-(phenylethynyl)-5-(trifluoromethyl)-1,2-dihydro-3H-pyrazol-3-one], the “SI (CC50/IC50)” value [1] is reported as 15, the CC50 (in vitro; [5]) is reported as > 815 µM and the CC50 (MDCK cell line) is reported as > 877 µM.
For NC(=O)c1ncn([C@@H]2O[C@H](CO)[C@@H](O)[C@H]2O)n1 [Ribavirin, reference compound], the “SI (CC50/IC50)” value [1] was 59 and the CC50 (in vitro) was > 2130 µM.
